Values belong to the molecule of their own block, whether it stands above or below them.
Assays:
[1] = target: T1, OsGA2ox3 (GA 2-oxidase 3) (Oryza sativa, UniProt Q8S0S6); experiment: X-ray crystal structure, […] Å; format: binding; conditions: Fe(II) absent
T1 construct: gene GA2OX3; full-length coding region in pGEX6P1, GST tag cut off with PreScission protease, E. coli Rosetta (DE3) pLysS; monomer, homotetramer with GA4

OsGA2ox6 = target: T2, OsGA2ox6 (Oryza sativa, UniProt Q7XP65); experiment: gel filtration, ligand-induced dimerization; format: binding; conditions: 10 mM GA4 incubation, 18 h, 25 °C, pH 7.4; interface (allosteric)
T2 construct: gene GA2OX6; full-length coding region in pGEX6P1 (GST fusion); C20-type; monomer, dimer with GA4
T2 sequence (Q7XP65 1-358): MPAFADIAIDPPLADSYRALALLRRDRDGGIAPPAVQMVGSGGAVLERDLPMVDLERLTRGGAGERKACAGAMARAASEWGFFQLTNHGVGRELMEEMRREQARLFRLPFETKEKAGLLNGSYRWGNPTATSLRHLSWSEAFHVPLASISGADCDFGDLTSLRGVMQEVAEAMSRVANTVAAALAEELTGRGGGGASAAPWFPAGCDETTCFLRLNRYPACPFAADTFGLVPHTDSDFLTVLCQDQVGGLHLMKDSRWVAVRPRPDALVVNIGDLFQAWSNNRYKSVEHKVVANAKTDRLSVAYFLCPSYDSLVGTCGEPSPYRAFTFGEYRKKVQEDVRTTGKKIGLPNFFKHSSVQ

[2] = target: T3, OsGA2ox3 (GA 2-oxidase 3) (Oryza sativa, UniProt Q8S0S6, K308A); experiment: GC-SIM-MS of GA34, activity after incubation with GA4; format: biochemical; conditions: interface-site mutant; 2-oxoglutarate, Fe(II), pH 7.9, 30 °C
T3 construct: gene GA2OX3; full-length coding region in pGEX6P1, GST tag cut off with PreScission protease, E. coli Rosetta (DE3) pLysS; monomer, homotetramer with GA4
Protocol: GC-SIM-MS of GA34, activity after incubation with GA4 on OsGA2ox3 (GA 2-oxidase 3) | a single mutation, such as […] or 3Mu, led to no activation by GA4

[3] = target: T4, OsGA2ox3 (GA 2-oxidase 3) (Oryza sativa, UniProt Q8S0S6, C194A/K308A/K313A); experiment: as above; format: biochemical; conditions: 3Mu, interface-site mutant; same
T4 construct: gene GA2OX3; full-length coding region in pGEX6P1, GST tag cut off with PreScission protease, E. coli Rosetta (DE3) pLysS; monomer, homotetramer with GA4

[4] = target: T5, OsDAO (dioxygenase for auxin oxidation) (Oryza sativa, UniProt Q7XKU5); experiment: X-ray crystal structure, […] Å; format: binding; conditions: allosteric, two IAA molecules at the dimer interface; crystallised with 2-oxoglutarate
T5 construct: gene DAO; full-length coding region in pGEX6P1, GST tag cut off with PreScission protease, E. coli Rosetta (DE3) pLysS; monomer, dimer with IAA
T5 sequence (Q7XKU5 1-300): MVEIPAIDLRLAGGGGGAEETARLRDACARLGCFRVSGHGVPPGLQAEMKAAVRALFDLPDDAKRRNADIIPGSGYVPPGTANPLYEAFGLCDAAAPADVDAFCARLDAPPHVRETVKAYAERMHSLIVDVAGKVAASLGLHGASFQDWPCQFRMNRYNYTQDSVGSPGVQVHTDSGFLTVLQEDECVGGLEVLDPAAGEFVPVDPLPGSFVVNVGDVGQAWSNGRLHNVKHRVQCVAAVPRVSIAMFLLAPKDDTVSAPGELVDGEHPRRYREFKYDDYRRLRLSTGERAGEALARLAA

T1 sequence (Q8S0S6 whole entry): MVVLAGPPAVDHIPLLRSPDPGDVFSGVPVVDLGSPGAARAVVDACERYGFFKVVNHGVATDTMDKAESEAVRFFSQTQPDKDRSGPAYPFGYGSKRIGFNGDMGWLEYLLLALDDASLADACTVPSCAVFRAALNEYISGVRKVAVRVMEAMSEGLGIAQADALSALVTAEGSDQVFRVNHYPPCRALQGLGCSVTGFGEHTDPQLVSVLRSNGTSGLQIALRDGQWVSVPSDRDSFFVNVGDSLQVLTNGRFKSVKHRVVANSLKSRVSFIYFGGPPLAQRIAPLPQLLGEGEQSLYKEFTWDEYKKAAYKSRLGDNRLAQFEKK
T4 sequence (Q8S0S6 whole entry C194A/K308A/K313A): as the sequence (Q8S0S6 whole entry) above, with C194A, K308A, K313A counted along it
T3 sequence (Q8S0S6 whole entry K308A): as the sequence (Q8S0S6 whole entry) above, with K308A counted along it

SMILES: O=C(O)CCC(=O)C(=O)O [2OG]
X-ray crystal structure, 2.15 Å ([1]; active site, co-substrate, GA4 present): the amino acids interacting with 2OG (R269, S271, and Y183

GC-SIM-MS of GA34, activity after incubation with GA4 [3]: no activation of 3Mu occurred at all
SMILES: C=C1C[C@]23C[C@H]1CC[C@H]2[C@@]12CC[C@H](O)[C@@](C)(C(=O)O1)[C@H]2[C@@H]3C(=O)O [GA4]
gel filtration, ligand-induced dimerization (OsGA2ox6): The presence of GA4 induced a new peak of its dimer form | X-ray crystal structure, 2.15 Å ([1]; active site and second site (allosteric, subunit interface), 2-oxoglutarate present): We crystallized the enzyme with the co-substrates, 2OG and GA4 in the absence Fe(II) | GC-SIM-MS of GA34, activity after incubation with GA4 [2]: a single mutation, such as K308A or 3Mu, led to no activation by GA4

SMILES: O=C(O)Cc1c[nH]c2ccccc12 [indole-3-acetic acid]
X-ray crystal structure, 2.0 Å [4]: We elucidated the crystal structure of OsDAO complexed with its substrate, IAA
